Where two headings read alike, the source gives them in different places.
Legend:
human ENT1 [1] = biological target: T1, human ENT1 (Homo sapiens, UniProt Q99808); assay: ENT1 binding assay (competition with Sahenta-DY647 on JAR cells); design: JAR cells expressing ENT1 were bought from ATCC; host or cells: JAR cells; conditions: binned IC50
T1 sequence (Q99808 1-456): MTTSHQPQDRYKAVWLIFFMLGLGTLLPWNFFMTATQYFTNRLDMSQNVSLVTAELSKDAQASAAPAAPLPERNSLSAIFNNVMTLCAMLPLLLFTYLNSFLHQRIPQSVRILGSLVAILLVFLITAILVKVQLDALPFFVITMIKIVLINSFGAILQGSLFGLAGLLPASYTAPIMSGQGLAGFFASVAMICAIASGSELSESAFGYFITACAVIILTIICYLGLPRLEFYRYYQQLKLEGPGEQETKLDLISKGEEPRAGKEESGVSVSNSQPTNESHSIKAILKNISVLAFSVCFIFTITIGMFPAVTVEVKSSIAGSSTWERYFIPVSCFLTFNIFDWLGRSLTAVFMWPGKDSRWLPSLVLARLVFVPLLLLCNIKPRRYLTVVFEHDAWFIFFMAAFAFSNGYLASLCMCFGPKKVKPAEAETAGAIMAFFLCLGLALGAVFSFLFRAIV
In short: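 JAR cells were incubated with test compounds and the fluorescent ligand Sahenta-DY647 in competition. Plates were washed twice by centrifugation (4 min, 400 rcf, 4 °C). Binding potency was derived from the final fluorescence.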

human AAG protein = assay: AAG binding assay - dialysis assay; conditions: 2 μM, 37° C., 4-hr
Protocol: Purpose. The aim of this assay is to determine the binding of a compound of interest to the human AAG protein using the robust method of dialysis.
Material. […] The dialysis Buffer (100 mM Phosphate Buffered Saline, pH 7.4) has been prepared by dissolving 28.56 g Na2HPO4.12H2O (AR grade) and 3.12 g NaH2PO4.2H2O (AR grade) into a final volume of 1000 mL ultra pure water, mixed, and adjusted the resulting solution with 1% phosphoric acid or 1 M sodium hydroxide to pH 7.4±0.1. Stored the final solution in 2-8° C. refrigerator within an expiration of a month after preparation.
Method: The dialysis membrane is soaked in dialysis buffer at 4° C. overnight. The following day the membrane is separated into two strips and then soaked in ethanol: water (20:80 v:v) for 20 mins. Then the membrane was rinsed with ultra-pure water 3-4 times. Prepared 400 μM working solution by diluting the stock solution (10 mM) with appropriate volume of DMSO. 5 μL aliquots of each working solution were spiked into 1000 μL of blank protein (matrix) to achieve a 2 μM final concentration as loading solution. The plates of loading solution were mixed well. Aliquots of 150 μL of loading solution were loaded in triplicate to the donor side of each dialysis well and dialyzed against an equal volume of dialysis buffer. […]
The concentration was calculated using the peak area ratio of analyte and internal standard.

human ENT1 [2] = biological target: T1, human ENT1; assay: Uridine transport inhibition assay (3H-uridine uptake, MDCKII-ENT1-LV cells); assay type: cell-based; conditions: 3H-uridine (1 μM), 1 min at 25° C.
Description: Purpose. The aim of this study was to determine the potency of equilibrative nucleoside transporter 1 (ENT1) inhibitors by measuring ENT1-mediated transport is the cellular uptake assay. The human ENT1 transporter can be stably expressed in Madin-Darby Canine Kidney II (MDCKII) cells via transduction. Uridine is efficiently transported by ENT1 and is used as probe in the assay as 3H-uridine. The interaction is detected as the modulation of the initial rate of 3H-uridine transport by human ENT1 into MDCKII-ENT1-LV cells stably expressing ENT1 uptake transporter.

[3] = tested on: human alpha 1-acid glycoprotein (AAG); assay: AAG binding assay - HPLC assay; conditions: for retention time (rt) on immobilized human AAG column: 100 μmol/L
Protocol: Purpose. […] The principle of the assay is a liquid chromatography on a human AAG protein immobilized onto a silica support for separations of compounds following their affinity to AAG protein. By measuring the retention time, the binding to AAG can be determined relatively to the references.
Method. […] Mobile Phase A: 50 mM Ammonium acetate in deionized water; Mobile Phase B: Isopropanol; Column Oven: 8° C.; PDA(nm): 230; Flow Rate (mL/min): 0.2. Test Concentration (μmol/L): 100 (from 10 mmol/L DMSO solution diluted 100 folds by 50 mM Ammonium acetate in deionized water: Isopropanol (1:1)). Generic Gradient: Time (min): 0.01; 5; 13; 14; 20.

[4] = tested on: stimulated primary human T cells; assay: T cell proliferation assay (rescue of proliferation in presence of 100 uM ATP); assay type: cell-based
Protocol: Purpose. The aim of this study was to determine the potency of equilibrative nucleoside transporter 1 (ENT1) inhibitors to rescue proliferation by stimulated primary human T cells incubated in the presence of 100 uM Adenosine triphosphate (ATP) with: • Condition A: X-VIVO15 • Condition B: X-VIVO15, 2% Human Serum Albumine (HSA) and 0.1% α-1-Acid Glycoprotein (AAG)
Method. Cryopreserved purified human CD3+ T cells were thawed and washed twice with RPMI1640 medium, UltraGlutamine containing 10% hiFBS.
Cells were suspended in PBS containing 10% hiFBS. Cells were stained with CFSE by adding 2 μM solution in PBS, to get a final 1 μM CFSE solution. Cells were incubated while rotating for 5 minutes. Reaction was stopped by adding PBS with 10% FBS and cells were centrifuged for 5 minutes at 1500 rpm.
Cells were resuspended at 1.6×10^6 cells/mL, either in X-VIVO15 medium or in 4% Human Serum Albumin and 0.2% α-1-Acid Glycoprotein. 50 μL of cell suspension (8×10^4 T cells) was added to wells of sterile round-bottom 96-well plates. Cells were activated by adding 50 μL of anti-CD3 anti-CD28 coated microbeads, suspended either in XVIVO-15 medium or in 4% HSA and 0.2% α-1-Acid Glycoprotein, at a ratio of one microbead per two cells.
Serial dilutions of the ENT1 inhibitors were prepared in X-VIVO15 from 10 mM stock solutions in DMSO, and 50 μL was added to the wells.
ATP powder was diluted in X-VIVO15, and 50 μL of this compound was added to the wells to reach a final assay concentration of 100 μM. Final volume of 200 μL.
The experiments were also performed in 384 well plates—all volumes reduced by a factor of 4 ([…]) with a final volume of 50 μL.
Experiments were performed in duplicate. The cells were placed in a 37° C. humidified tissue culture incubator with 5% CO2 for 72 hours for 96 well plates, 96 hours for 384 well plates. After 72 or 96 hours, proliferation was measured determined by CFSE dilution via flow cytometry.
Results. Compounds of the invention have good ENT1 inhibitory properties.

IC50 (human ENT1 [1]) | Human alpha-1-acid glycoprotein (AAG) (1 mg/mL) Unbound (human AAG protein) | IC50 (human ENT1 [2]) | retention time (rt) on immobilized human AAG column [3] | AAG HPLC ([3]; AAG binding by HPLC retention time (rt) on CHIRALPAK AGP column, binned) | Compound | IC50 ([4]; Condition A: X-VIVO15, read-out: TCell proliferation (Condition A) IC50) | IC50 ([4]; Condition B: X-VIVO15, 2% HSA and 0.1% AAG, read-out: TCell proliferation (Condition B) IC50)
100 to 500 nM | 24.6% Unbound | < 100 nM | 5.2 min | – | COCCN(CCOC)c1nc(N2CCC(OC)CC2)c2nc(N(CCOC)CCOC)nc(N3CCC(OC)CC3)c2n1 [Compound 2, N2,N2,N6,N6-tetrakis(2-methoxyethyl)-4,8-bis(4-methoxypiperidin-1-yl)pyrimido[5,4-d]pyrimidine-2,6-diamine] | 100 to 500 nM | 100 to 500 nM
500 to 1000 nM | 89.4% Unbound | – | – | – | COCCN(CCOC)c1nc(N2CCC(OC)CC2)c2nc(N(CCO)CCO)nc(N3CCC(OC)CC3)c2n1 [Compound 27, 2,2′-((6-(bis(2-methoxyethyl)amino)-4,8-bis(4-methoxypiperidin-1-yl)pyrimido[5,4-d]pyrimidin-2-yl)azanediyl)diethanol] | – | –
< 100 nM | – | – | – | −− (rt below 6 min: −−) | COCCN(CCOC)c1nc(N2CCCC3(COC3)C2)c2nc(N(CCOC)CCOC)nc(N3CCC(OC)CC3)c2n1 [Compound 97, N2,N2,N6,N6-tetrakis(2-methoxyethyl)-4-(4-methoxypiperidin-1-yl)-8-(2-oxa-6-azaspiro[3.5]nonan-6-yl)pyrimido[5,4-d]pyrimidine-2,6-diamine] | – | –
– | – | – | 14.05 min | – | CC(C)NCC(O)COc1cccc2ccccc12 (centres unmarked) [Propranolol, reference compound] | – | –
